Seven compounds from DBAASP can be followed below.

In brackets after ≈: the same amount, converted by molar mass.

What all share (experiment): ≥ marks a high value that may be exact or a test limit, other limits are often not marked, values filed in µg/mL are converted to µM
Assay [1] deals with Escherichia coli ATCC 25922.
In assay [2] the test system is Klebsiella pneumoniae.
Assay [3] deals with Shigella dysenteriae.
The subject of assay [4] is Enterococcus faecalis ATCC 29212.
Assay [5] concerns Pseudomonas aeruginosa.
Assay [6] concerns Pseudomonas aeruginosa CMCCB 1010.
Assay [7] has as its system Staphylococcus aureus ATCC 25923.
Assay [8] has as its system Pseudomonas aeruginosa ATCC 27853.
The subject of assay [9] is Bordetella bronchiseptica CUN 11844-99.
Assay [10] has as its system Escherichia coli DSM 1116.
In assay [11] the test system is Bacillus subtilis DSM 347.
Assay [12] concerns Franconibacter helveticus DSM 18390.
Assay [13] relates to Staphylococcus xylosus DSM 20287.
Assay [14] deals with Salmonella enterica subsp. enterica serovar Typhimurium ATCC 14028.
Assay [15] relates to Serratia marcescens ATCC 8100.
Assay [16] has as its system Escherichia coli ML-35.

The MIC is the lowest concentration found to suppress growth. The low end stands for greater potency, the high end for weaker potency. As to `CC[C@H](C)[C@H](NC(=O)[C@H](CC(C)C)NC(=O)[C@@H](NC(=O)[C@@H](NC(=O)[C@H](C)NC(=O)[C@@H](NC(=O)[C@H](CC(N)=O)NC(=O)[C@H](CCCCN)NC(=O)[C@H](C)NC(=O)[C@@H](NC(=O)[C@H](CC(N)=O)NC(=O)[C@H](CCCCN)NC(=O)[C@H](C)NC(=O)[C@@H](NC(=O)[C@H](CC(=O)O)NC(=O)[C@H](CCSC)NC(=O)[C@H](Cc1ccccc1)NC(=O)CN)[C@@H](C)O)C(C)C)C(C)C)C(C)C)[C@@H](C)O)C(=O)N[C@@H](CC(=O)O)C(=O)N[C@@H](CCCCN)C(=O)N[C@@H](CC(C)C)C(=O)N[C@@H](CCCN=C(N)N)C(=O)N[C@H]1CSSC[C@@H](C(=O)O)NC(=O)CNC(=O)CNC(=O)[C@H]([C@@H](C)O)NC(=O)[C@H](C(C)C)NC(=O)[C@H](CCCCN)NC1=O` [GFMDTAKNVAKNVAVTLIDKLRCKVTGGC], the MIC is 13 µM (≈ 39.7 µg/mL) in [1]; 50 µM (≈ 153 µg/mL) in [2]; no less than 50 µM in assay [3]; 20 µM (≈ 61 µg/mL) in [4]; 50 µM (≈ 153 µg/mL) in assay [5]; 20 µM (≈ 61 µg/mL) in [6]. The figures for the MIC in [7] and in assay [8] were 20 µM (≈ 61 µg/mL) and 33 µM (≈ 101 µg/mL), respectively.
With `NCCCC[C@H](NC(=O)[C@H](Cc1ccc(O)cc1)NC(=O)[C@H](CCCN=C(N)N)NC(=O)[C@H](CCCN=C(N)N)NC(=O)CN)C(=O)N[C@@H](CCCCN)C(=O)N[C@@H](Cc1ccccc1)C(=O)N[C@@H](CCCCN)C(=O)N[C@@H](Cc1c[nH]c2ccccc12)C(=O)N[C@@H](CCCN=C(N)N)C(=O)N[C@@H](Cc1ccccc1)C(=O)N[C@@H](CCCN=C(N)N)C(=O)NCC(=O)N[C@@H](CCCN=C(N)N)C(=O)N[C@@H](Cc1ccccc1)C(=O)N[C@@H](Cc1c[nH]c2ccccc12)C(=O)N[C@@H](Cc1ccccc1)C(=O)N[C@@H](Cc1c[nH]c2ccccc12)C(=O)NCC(N)=O` [GRRYKKFKWRFRGRFWFWG], the MIC in [1] is 24 µM (≈ 64 µg/mL); in assay [7], 12 µM (≈ 32 µg/mL); in assay [9], 6 µM (≈ 16 µg/mL).
For the compound `CC[C@H](C)[C@H](N)C(=O)N[C@@H](C)C(=O)NCC(=O)N[C@@H](CCCCN)C(=O)N[C@H](C(=O)N[C@@H](C)C(=O)N[C@@H](CCCCN)C(=O)N[C@H](C(=O)N[C@@H](C)C(=O)NCC(=O)N[C@@H](CCCCN)C(=O)N[C@H](C(=O)N[C@@H](C)C(=O)N[C@@H](CCCCN)C(=O)N[C@H](C(=O)N[C@@H](C)C(=O)NCC(=O)N[C@@H](CCCCN)C(=O)N[C@H](C(=O)N[C@@H](C)C(=O)N[C@@H](CCCCN)C(N)=O)[C@@H](C)CC)[C@@H](C)CC)[C@@H](C)CC)[C@@H](C)CC)[C@@H](C)CC` [IAGKIAKIAGKIAKIAGKIAK], the MIC in [10] stood at 1.94 µM (≈ 4 µg/mL); in assay [11], 1.37 µM (≈ 2.83 µg/mL); in [12], 1.37 µM (≈ 2.83 µg/mL); in assay [13], 1.37 µM (≈ 2.83 µg/mL).
For the compound `CC[C@H](C)[C@H](N)C(=O)N[C@@H](C)C(=O)N[C@@H](CCCCN)C(=O)N[C@H](C(=O)N[C@@H](C)C(=O)NCC(=O)N[C@@H](CCCCN)C(=O)N[C@H](C(=O)N[C@@H](C)C(=O)N[C@@H](CCCCN)C(=O)N[C@H](C(=O)N[C@@H](C)C(=O)NCC(=O)N[C@@H](CCCCN)C(=O)N[C@H](C(=O)N[C@@H](C)C(=O)N[C@@H](CCCCN)C(N)=O)[C@@H](C)CC)[C@@H](C)CC)[C@@H](C)CC)[C@@H](C)CC` [IAKIAGKIAKIAGKIAK], the minimum inhibitory concentration (MIC) in assay [10] is no less than 75.6 µM; in [11], 9.44 µM (≈ 16 µg/mL); in [12] it was no less than 53.4 µM; in [13], no less than 75.6 µM.
On to `CC[C@H](C)[C@H](NC(=O)[C@H](CCCCN)NC(=O)CNC(=O)[C@H](C)NC(=O)[C@@H](NC(=O)[C@H](CCCCN)NC(=O)[C@H](C)NC(=O)[C@@H](NC(=O)[C@H](CCCCN)NC(=O)CNC(=O)[C@H](C)NC(=O)[C@@H](NC(=O)[C@H](CCCCN)NC(=O)[C@H](C)NC(=O)[C@@H](NC(=O)[C@H](CCCCN)NC(=O)CNC(=O)[C@H](C)NC(=O)[C@@H](NC(=O)[C@H](CCCCN)NC(=O)[C@H](C)NC(=O)[C@@H](NC(=O)[C@@H](N)CCCCN)[C@@H](C)CC)[C@@H](C)CC)[C@@H](C)CC)[C@@H](C)CC)[C@@H](C)CC)[C@@H](C)CC)C(=O)N[C@@H](C)C(N)=O` [KIAKIAGKIAKIAGKIAKIAGKIA], for which the MIC in assay [10], in assay [11], in assay [12] and in assay [13] was 0.842 µM (≈ 2 µg/mL) throughout.
As for `CC[C@H](C)[C@H](NC(=O)[C@H](CCCCN)NC(=O)CNC(=O)[C@H](C)NC(=O)[C@@H](NC(=O)[C@H](CCCCN)NC(=O)[C@H](C)NC(=O)[C@@H](NC(=O)[C@H](CCCCN)NC(=O)CNC(=O)[C@H](C)NC(=O)[C@@H](NC(=O)[C@H](CCCCN)NC(=O)[C@H](C)NC(=O)[C@@H](NC(=O)[C@@H](N)CCCCN)[C@@H](C)CC)[C@@H](C)CC)[C@@H](C)CC)[C@@H](C)CC)C(=O)N[C@@H](C)C(N)=O` [KIAKIAGKIAKIAGKIA], the MIC in assay [10] was 6.68 µM (≈ 11.3 µg/mL); in assay [11], 6.68 µM (≈ 11.3 µg/mL); in [12] it was 9.44 µM (≈ 16 µg/mL); in assay [13], no less than 37.8 µM.
On to `CC[C@H](C)[C@H](NC(=O)[C@@H]1CCCN1C(=O)[C@H](CCCN=C(N)N)NC(=O)[C@@H]1CCCN1C(=O)CNC(=O)[C@@H]1CCCN1C(=O)[C@H](CCCN=C(N)N)NC(=O)[C@@H]1CCCN1C(=O)[C@H](Cc1ccccc1)NC(=O)[C@@H]1CCCN1C(=O)[C@H](CC(C)C)NC(=O)[C@@H]1CCCN1C(=O)[C@H](CCCN=C(N)N)NC(=O)[C@@H]1CCCN1)C(=O)O` [PRPLPFPRPGPRPI], for which the MIC was greater than 128 µM in assay [1]; greater than 128 µM in [7]; greater than 128 µM in assay [14]; no less than 128 µM in [15]; no less than 128 µM in assay [16].
